Test results published in PMC11876601 (Molecular Systems Biology, 2025).
pEC50: −log10 of the molar value. Read-outs that look alike come from different tables or passages of the source.

System: p-sites in DNA-damaged AsPC-1 cells
Assay: decryptM dose-resolved phosphoproteomics of ATRi in GEM-pre-treated cells
Assay type: cell-based, human
Details: for pEC50 / EC50: Homo sapiens
Protocol: Cell culture medium was replaced 24 h after seeding. […] For time point 0, AsPC-1 cells were treated with a vehicle and lysed immediately. The final DMSO concentration in all experiments was 0.2%.
Briefly, cells were washed twice with PBS and lysed in SDS lysis buffer (2% SDS in 40 mM Tris-HCl, pH 7.6), followed by sonication for 10 min (30 s on/30 s off) using a Bioruptor (Diagenode). For DNA hydrolysis, samples were boiled at 95 °C for 10 min and incubated with 2% trifluoroacetic acid (TFA) for 1 min, before the reaction was quenched using 4% N-methylmorpholine. Lysate was cleared by centrifugation at 11,000 × g for 5 min and protein concentration was determined using the Pierce BCA Protein Assay Kit (Thermo Scientific).
Using 70% ethanol, samples were then precipitated on beads, followed by washing thrice with 80% ethanol and once with 100% acetonitrile. Subsequently, proteins were reduced and alkylated using 10 mM TCEP, 50 mM chloroacetamide, and 2 mM CaCl2 in 100 mM EPPS/NaOH, pH 8.5 for 1 h at 37 °C, followed by tryptic digestion at 37 °C for 16 h. Peptides were acidified with 1% TFA and desalted on Chromabond HLB plates (30 µm particle size, 10 mg capacity, Machery-Nagel), using 0.1% TFA for equilibration and sample loading, and 0.1% TFA in 70% acetonitrile for peptide elution. Recovered peptides were freeze-dried by vacuum-centrifugation and stored at −20 °C.
Depending on the experiment, samples were either labeled with TMT-11plex (decryptM), TMT-10plex (non-decryptM, quadruplicates), or TMTpro reagent (time-series; all Thermo Scientific). Therefore, dried peptides were reconstituted in 15 µl 100 mM EPPS, pH 8.5 and each treatment condition was labeled with one channel of the respective TMT reagent (5 µl of 25 µg/µl reagent, Appendix Tables S4–S6). The reaction was incubated for 1 h at 23 °C and subsequently quenched with 0.4% hydroxylamine. Then, samples were pooled, acidified with 1% formic acid, and freeze-dried by vacuum-centrifugation. Labeled peptide pools were desalted on C18 Sep-Pak cartridges (37–55 µm particle size, 50 mg capacity, Waters), using 0.1% formic acid as equilibration solvent, and 0.1% formic acid in 60% acetonitrile was used as elution solvent. Eluted peptides were freeze-dried and stored at −20 °C until further use.
Basic reversed-phase (bRP) fractionation of peptides was performed on a Vanquish HPLC (Thermo Scientific). In short, dried peptides were reconstituted in 200 µl 25 mM ammonium bicarbonate, pH 8.0 and directly injected onto a Waters BEH130 XBridge C18 column (3.5 µm, 4.6 × 250 mm). […] Using an automated fraction collector, 96 fractions were collected between min 7 and 55 after injection. Fractions were acidified with 1% formic acid and pooled to 48 fractions, before they were freeze-dried and stored at −20 °C.
Immobilized metal ion affinity chromatography (IMAC) enrichment of phosphorylated peptides was performed on the Bravo automated liquid handling platform using AssayMAP Fe(III)-NTA cartridges (Agilent). In brief, the 48 dried peptide fractions were reconstituted in 0.1% TFA in 80% acetonitrile and further pooled to 12 fractions (200 µl final volume per well). The phosphopeptide enrichment protocol embedded in the Agilent AssayMAP Bravo Protein Sample Prep Workbench v2.0 software was run. Thereby, the cartridges were first primed with 150 μl 0.1% TFA in acetonitrile at 300 μl/min, and equilibrated with 150 μl 0.1% TFA in 80% acetonitrile at 10 μl/min. Then, pooled fractions were loaded at 5 µl/min and further washed three times with 150 μl 0.1% TFA in 80% acetonitrile at 50 μl/min. Enriched peptides were eluted with 60 μl 1% ammonium hydroxide at 5 μl/min.

Structure (SMILES): CNCc1ccc(-c2cc(-c3nc(-c4ccc(S(=O)(=O)C(C)C)cc4)cnc3N)on2)cc1 [Berzosertib]
- Log2 PTM response (GEM+ATRi vs. GEM) (AASDHPPT-pS258): -2
- Log2 PTM response (GEM+ATRi vs. GEM) (BRCA1-pS1239): -1.2
- Log2 PTM response (GEM+ATRi vs. GEM) (BRD8-pS621): -2.5
- Log2 PTM response (GEM+ATRi vs. GEM) (CDKN2AIP-pS198): -2
- Log2 PTM response (GEM+ATRi vs. GEM) (CHEK1-pS317): -2.8
- Log2 PTM response (GEM+ATRi vs. GEM) (CHEK1-pS468): -2.9
- Log2 PTM response (GEM+ATRi vs. GEM) (DHX9-pS321): -2.3
- Log2 PTM response (GEM+ATRi vs. GEM) (EXO1-pS714): -2.7
- Log2 PTM response (GEM+ATRi vs. GEM) (FANCD2-pS319): -2.6
- Log2 PTM response (GEM+ATRi vs. GEM) (HDGF-pS103): -2.4
- Log2 PTM response (GEM+ATRi vs. GEM) (HMGA1-pS9): -3
- Log2 PTM response (GEM+ATRi vs. GEM) (HMGA1-pS36;S44): -1.4
- Log2 PTM response (GEM+ATRi vs. GEM) (HMGA1-pS44): -2.9
- Log2 PTM response (GEM+ATRi vs. GEM) (HSPA4-pS552): -2.1
- Log2 PTM response (GEM+ATRi vs. GEM) (HTATSF1-pS481): -2
- pEC50 (ASPC1, read-out: EC50 of the majority of pSQ/pTQ sites): ~7.00
- EC50 (ASPC1, read-out: pEC50 of the majority of pSQ/pTQ sites (converted)): ~0.1 µM
- pEC50 (ASPC1, p-site dose-response in GEM-pre-treated cells, read-out: EC50, PPM1G S201): 7.21
- pEC50 (ASPC1, p-site dose-response in GEM-pre-treated cells, read-out: EC50, RALY S176): 6.90
- EC50 (ASPC1, p-site dose-response in GEM-pre-treated cells, read-out: pEC50, PPM1G S201 (converted)): 0.0617 µM
- EC50 (ASPC1, p-site dose-response in GEM-pre-treated cells, read-out: pEC50, RALY S176 (converted)): 0.126 µM
- pEC50 (ASPC1, read-out: median EC50 across all drug-regulated pSQ/pTQ-sites): 6.73
- Log2 PTM response (GEM+ATRi vs. GEM) (LRRC42-pS385): -3.3
- Log2 PTM response (GEM+ATRi vs. GEM) (NBN-pS397): -1.8
- Log2 PTM response (GEM+ATRi vs. GEM) (NBN-pS615): -0.9
- Log2 PTM response (GEM+ATRi vs. GEM) (NSUN5-pS432): -3.5
- Log2 PTM response (GEM+ATRi vs. GEM) (PELP1-pS1033): -1.4
- Log2 PTM response (GEM+ATRi vs. GEM) (PHF14-pS294): -1.9
- Log2 PTM response (GEM+ATRi vs. GEM) (PNISR-pS706): -2.2
- Log2 PTM response (GEM+ATRi vs. GEM) (PPM1G-pS201): -3.5
- Log2 PTM response (GEM+ATRi vs. GEM) (PPP6R3-pS825): -1.4
- Log2 PTM response (GEM+ATRi vs. GEM) (PSMD4-pS266): -1.6
- Log2 PTM response (GEM+ATRi vs. GEM) (RAD18-pS368): -1
- Log2 PTM response (GEM+ATRi vs. GEM) (RIF1-pS1873): -2.2
- Log2 PTM response (GEM+ATRi vs. GEM) (SNRPA-pS115): -1.2
- Log2 PTM response (GEM+ATRi vs. GEM) (TCEA1-pS100;S97): -1
- Log2 PTM response (GEM+ATRi vs. GEM) (TCEB3-pS251): -2.1
- Log2 PTM response (GEM+ATRi vs. GEM) (TOPBP1-pS1504): -1.9
- Log2 PTM response (GEM+ATRi vs. GEM) (TSEN34-pS136): -1.2
- Log2 PTM response (GEM+ATRi vs. GEM) (UHRF1-pS393): -2.3
- Log2 PTM response (GEM+ATRi vs. GEM) (UIMC1-pS171): -1.5
- Log2 PTM response (GEM+ATRi vs. GEM) (ZC3H14-pS135): -1.5
- ATRi Regulation (Curve), PPM1G S201 (classified by CurveCurator): down
- ATRi Regulation (Curve), RALY S176 (classified by CurveCurator): down
- PTM response (norm. to 1 µM GEM) (source data 4B (p-site not named), 1 µM GEM + ATRi 1 nM): 1.08
- PTM response (norm. to 1 µM GEM) (source data 4B (p-site not named), 1 µM GEM + ATRi 3 nM): 1.06
- PTM response (norm. to 1 µM GEM) (source data 4B (p-site not named), 1 µM GEM + ATRi 10 nM): 0.94
- PTM response (norm. to 1 µM GEM) (source data 4B (p-site not named), 1 µM GEM + ATRi 30 nM): 1.20
- PTM response (norm. to 1 µM GEM) (source data 4B (p-site not named), 1 µM GEM + ATRi 100 nM): 0.78
- PTM response (norm. to 1 µM GEM) (source data 4B (p-site not named), 1 µM GEM + ATRi 300 nM): 0.40
- PTM response (norm. to 1 µM GEM) (source data 4B (p-site not named), 1 µM GEM + ATRi 1000 nM): 0.20
- PTM response (norm. to 1 µM GEM) (source data 4B (p-site not named), 1 µM GEM + ATRi 3000 nM): 0.14
- PTM response (norm. to 1 µM GEM) (source data 4B (p-site not named), 1 µM GEM + ATRi 10000 nM): 0.15
- PTM response (norm. to 1 µM GEM) (source data 5B (p-site not named), 1 µM GEM + ATRi 1 nM): 0.81
- PTM response (norm. to 1 µM GEM) (source data 5B (p-site not named), 1 µM GEM + ATRi 3 nM): 0.96
- PTM response (norm. to 1 µM GEM) (source data 5B (p-site not named), 1 µM GEM + ATRi 10 nM): 0.69
- PTM response (norm. to 1 µM GEM) (source data 5B (p-site not named), 1 µM GEM + ATRi 30 nM): 0.83
- PTM response (norm. to 1 µM GEM) (source data 5B (p-site not named), 1 µM GEM + ATRi 100 nM): 0.51
- PTM response (norm. to 1 µM GEM) (source data 5B (p-site not named), 1 µM GEM + ATRi 300 nM): 0.19
- PTM response (norm. to 1 µM GEM) (source data 5B (p-site not named), 1 µM GEM + ATRi 1000 nM): 0.12
- PTM response (norm. to 1 µM GEM) (source data 5B (p-site not named), 1 µM GEM + ATRi 3000 nM): 0.13
- PTM response (norm. to 1 µM GEM) (source data 5B (p-site not named), 1 µM GEM + ATRi 10000 nM): 0.12
